Results: patent publication US8067614B2, “N-substituted (benzoimidazol-2-yl)phenylamines, processes for their preparation, their use as a medicament or diagnostic aid, and a medicament comprising them” (Sanofi-Aventis Deutschland GmbH, priority 2003, dated 2011)
Where a name gives a salt, the structure may show the parent alone.

Columns and labels:
imidazoline I1 receptor = details: Ernsberger et al, Eur. J. Pharmacol. 134, 1, 1987; cited from earlier work
[1] = test system: adrenergic alpha2 receptor; details: Ernsberger et al, Eur. J. Pharmacol. 134, 1, 1987; cited from earlier work
[2] = mediated by alpha2 and I1 receptors; Ernsberger et al.; cited from earlier work
rNHE3 = molecular target: T1, rNHE3 (Rattus norvegicus, UniProt P26433); assay: Recovery of intracellular pH after acidification (BCECF fluorescence) in LAP1 fibroblasts; type: cell-based
T1 construct: expressed in transfected cells; host or cells: LAP1 cells (fibroblasts)
Protocol: In this test, the recovery in the intracellular pH (pHi) after an acidification was ascertained, which is initiated if the NHE3 is capable of functioning, even under bicarbonate-free conditions. For this purpose, the pHi was determined using the pH-sensitive fluorescent dye BCECF (Calbiochem, the precursor BCECF-AM is employed). The cells (fibroblasts, LAP1 cells) were initially loaded with BCECF. The BCECF fluorescence was determined in a “Ratio Fluorescence Spectrometer” (Photon Technology International, South Brunswick, N.J., USA) at excitation wavelengths of 505 and 440 nm and an emission wavelength of 535 nm and converted into the pHi using calibration curves. The cells were incubated in NH4Cl buffer (pH 7.4) (NH4Cl buffer: 115 mM NaCl, 20 mM NH4Cl, 5 mM KCl, 1 mM CaCl2, 1 mM MgSO4, 20 mM Hepes, 5 mM glucose, 1 mg/ml BSA; a pH of 7.4 is adjusted with 1 M NaOH) even during the BCECF loading. The intracellular acidification was induced by adding 975 μl of an NH4Cl-free buffer (see below) to 25 μl aliquots of the cells incubated in NH4Cl buffer. The subsequent rate of pH recovery was recorded for three minutes. To calculate the inhibitory potency of the tested substances, the cells were initially investigated in buffers with which a complete or absolutely no pH recovery took place. For complete pH recovery (100%), the cells were incubated in Na^+-containing buffer (133.8 mM NaCl, 4.7 mM KCl, 1.25 mM CaCl2, 1.25 mM MgCl2, 0.97 mM Na2HPO4, 0.23 mM NaH2PO4, 5 mM Hepes, 5 mM glucose, a pH of 7.0 is adjusted with 1 M NaOH). To determine the 0% value, the cells were incubated in an Na^+-free buffer (133.8 mM choline chloride, 4.7 mM KCl, 1.25 mM CaCl2, 1.25 mM MgCl2, 0.97 mM K2HPO4, 0.23 mM KH2PO4, 5 mM Hepes, 5 mM glucose, a pH of 7.0 is adjusted with 1 M KOH). The substances to be tested were made up in the Na^+-containing buffer. The recovery of the intracellular pH at each test concentration of a substance was expressed as a percentage of the maximum recovery. The IC50 value for the particular substance for the individual NHE subtypes was calculated from the pH recovery percentages using the Sigma-Plot program.

NHE3 = details: M. Donowitz et al., Am. J. Physiol. 276; cited from earlier work

T1 sequence (P26433 29-831): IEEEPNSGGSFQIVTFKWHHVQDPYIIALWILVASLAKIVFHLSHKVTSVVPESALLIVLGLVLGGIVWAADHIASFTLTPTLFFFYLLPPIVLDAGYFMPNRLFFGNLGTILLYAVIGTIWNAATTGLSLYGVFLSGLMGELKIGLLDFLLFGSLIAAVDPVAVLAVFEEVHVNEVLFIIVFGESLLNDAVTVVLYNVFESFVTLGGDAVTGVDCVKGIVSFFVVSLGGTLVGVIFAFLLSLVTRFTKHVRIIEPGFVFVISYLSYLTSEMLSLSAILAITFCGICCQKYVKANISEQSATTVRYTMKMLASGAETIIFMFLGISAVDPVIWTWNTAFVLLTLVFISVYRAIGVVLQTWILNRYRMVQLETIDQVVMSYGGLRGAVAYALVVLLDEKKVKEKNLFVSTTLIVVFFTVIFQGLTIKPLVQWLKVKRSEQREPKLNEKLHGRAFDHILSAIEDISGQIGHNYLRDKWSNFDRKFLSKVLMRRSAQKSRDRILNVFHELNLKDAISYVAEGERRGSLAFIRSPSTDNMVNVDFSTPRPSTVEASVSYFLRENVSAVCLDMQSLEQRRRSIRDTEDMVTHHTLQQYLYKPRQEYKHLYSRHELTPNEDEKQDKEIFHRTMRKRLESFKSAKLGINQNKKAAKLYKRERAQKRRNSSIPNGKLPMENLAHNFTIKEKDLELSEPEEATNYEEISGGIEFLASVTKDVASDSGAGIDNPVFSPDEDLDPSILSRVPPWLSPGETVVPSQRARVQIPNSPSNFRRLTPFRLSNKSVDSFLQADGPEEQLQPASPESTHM

| Structure (SMILES) | IC50 (rNHE3) [µM] | other results |
| --- | --- | --- |
| Clc1cccc(Cl)c1N=C1NCCN1 [Clonidine] |  | affinity for the imidazoline I1 receptor (imidazoline I1 receptor): high affinity; affinity for the adrenergic alpha2 receptor [1]: high affinity; blood pressure-lowering effect [2]: strong blood pressure-lowering effect |
| CN(c1nc2cc(F)ccc2[nH]1)c1c(Cl)cccc1Cl [Example 4, (2,6-Dichlorophenyl)(5-fluoro-1H-benzoimidazol-2-yl)methylamine] | 3.3 |  |
| C=CCN(c1nc2ccccc2[nH]1)c1c(Cl)cccc1Cl [Example 5, Allyl(1H-benzoimidazol-2-yl)(2,6-dichlorophenyl)amine] | 1.5 |  |
| CC(C)[C@@H](CC[C@@H](C)[C@H]1CC[C@H]2[C@@H]3[C@H](O)C[C@H]4C[C@@H](NCCCNCCCCN)CC[C@]4(C)[C@H]3CC[C@]12C)OS(=O)(=O)O [Squalamine] |  | time to maximum strength of effect as NHE3 inhibitor (NHE3): only after one hour |
| CN(c1nc2ccccc2[nH]1)c1c(Cl)cccc1Cl [Example 2, (1H-Benzoimidazol-2-yl)(2,6-dichlorophenyl)methylamine hydrochloride] | 0.53 |  |
| Clc1cccc(Cl)c1N(c1nc2ccccc2[nH]1)C1CCCC1 [Example 6, (1H-Benzoimidazol-2-yl)cyclopentyl(2,6-dichlorophenyl)amine] | 8.3 |  |
| CC(C)N(c1nc2ccccc2[nH]1)c1c(Cl)cccc1Cl [Example 3, (1H-Benzoimidazol-2-yl)(2,6-dichlorophenyl)isopropylamine] | 9.3 |  |
| CCN(c1nc2ccccc2[nH]1)c1c(Cl)cccc1Cl [Example 1, (1H-Benzoimidazol-2-yl)(2,6-dichlorophenyl)ethylamine] | 0.57 |  |
